Several values for one entry are separate records, joined by “and”; a condition that tells them apart may be missing. Equal entries are not always repeated.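 Tested at 5 concentrations; 48 h exposure; 96-well plates; endpoints linearly interpolated, else capped at highest concentration. GI50 marks 50% less growth. At the TGI there is no net growth.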
Key:
Experiment in all cases: DTP human tumour cell line panel, 48 h
KM20L2 colon = system: KM20L2 colon
HOP-18 NSCLC = system: HOP-18 NSCLC
SNB-78 CNS = system: SNB-78 CNS
RXF-631 renal = system: RXF-631 renal
LXFL 529 NSCLC = system: LXFL 529 NSCLC
M19-MEL melanoma = system: M19-MEL melanoma
XF 498 CNS = system: XF 498 CNS
BT-549 breast = system: BT-549 breast
MDA-N = system: MDA-N

SMILES	TGI (KM20L2 colon)	TGI (SNB-78 CNS)	TGI (LXFL 529 NSCLC)	TGI (M19-MEL melanoma)	GI50 (BT-549 breast)	TGI (BT-549 breast)	further results
CCOC(=O)C1C(=O)c2ccccc2CN1Cc1ccccc1 (stereo not given)	> 100 µM	> 100 µM	> 100 µM	> 100 µM			TGI (HOP-18 NSCLC): > 100 µM; TGI (RXF-631 renal): > 100 µM; TGI (XF 498 CNS): > 100 µM
Cc1nc2cccc(NCc3ccc(C(=O)NO)cc3)c2c(=O)n1-c1ccccc1					2.8 µM	8.1 µM	
O=C1C=Cc2ccccc2/C1=C/c1[nH]c(=O)[nH]c1O					6.75 µM	96.3 µM	
COC(=O)Nc1nc2ccccc2c(=O)[nH]1						> 100 µM	TGI (MDA-N): 50.8 µM
CC1=Cc2cc3[n-]c(cc4nc(cc5[n-]c(cc1n2)cc5C)C(C)=C4CCC(=O)O)c(CCC(=O)O)c3C.[Pd+2]	44.3 µM	28.7 µM	11.1 µM	20.5 µM	4.89 µM	> 100 µM	GI50 (KM20L2 colon): 17.5 µM; GI50 (MDA-N): > 100 µM; TGI (MDA-N): > 100 µM; GI50 (HOP-18 NSCLC): 15.8 µM; TGI (HOP-18 NSCLC): 30.6 µM; GI50 (SNB-78 CNS): 6.17 µM; GI50 (LXFL 529 NSCLC): 2860 nM; GI50 (M19-MEL melanoma): 3.64 µM; GI50 (XF 498 CNS): 14.2 µM; TGI (XF 498 CNS): 31.5 µM
O=c1cc2ccccc2nn1-c1ccccc1Cl	> 100 µM	> 100 µM		> 100 µM			TGI (HOP-18 NSCLC): > 100 µM; TGI (XF 498 CNS): 77.5 µM
O=C(O)c1cc2c(cn1)[nH]c1ccccc12	> 100 µM	> 100 µM	> 100 µM	> 100 µM			TGI (HOP-18 NSCLC): > 100 µM
OCCCCC#Cc1ccccc1C#Cc1ccccc1C(F)(F)F					17.1 µM	31.7 µM	
CNC(=O)c1cccc(-c2ccc3c(N4CCOC[C@@H]4C)nc(N4CCOC[C@@H]4C)nc3n2)c1					0.0436 µM and 0.0953 µM and 0.0614 µM	1.38 µM and 1.08 µM and 0.648 µM	
Nc1ccccc1C#C/C=C\C#Cc1ccc(Cl)cc1Cl					12.4 µM	28.7 µM	
COC(=O)C1=C(O)C(O)=C(C(=O)OC)C1	> 100 µM	> 100 µM	> 100 µM	> 100 µM			TGI (HOP-18 NSCLC): > 100 µM
Cc1c2cc[nH]c(=O)c2cc2c(=O)c3cnccc3[nH]c12	> 100 µM	> 100 µM	> 100 µM	> 100 µM			TGI (HOP-18 NSCLC): > 100 µM
CCSc1nc(N=Cc2cccs2)c2cn[nH]c2n1					> 100 µM	> 100 µM	
O=C(c1ccccc1)c1c(C(=O)c2ccccc2)c(-c2ccccc2)c2c(-c3ccccc3)sc(-c3ccccc3)c2c1-c1ccccc1	> 100 µM	> 100 µM	> 100 µM	> 100 µM			TGI (RXF-631 renal): > 100 µM; TGI (XF 498 CNS): > 100 µM
COC(=O)/C(=C\c1c(C)[nH]c2ccccc12)S(=O)(=O)c1ccccc1					5.4 µM	25.5 µM	
CC(C)(O)C1OCC(C2CCC3(C)C4=CCC5C(C)(C)C(O)CCC5(C)C4CCC23C)CC1O (stereo not given)						24.8 µM	TGI (MDA-N): 41.8 µM
C=C1C(=O)OC2CC3(CO3)C3C(O)C(O)CC3(C)CC12 (stereo not given)						33.9 µM	TGI (MDA-N): 81.6 µM
O=C(NC(=S)Nc1ccc(Cl)cc1)c1ccccc1					> 100 µM	> 100 µM	
COc1ccc(-c2nc(-c3cn(C)c4ncccc34)cs2)cc1					68 µM	> 100 µM	
CC1NOC(=O)C1N=Nc1ccccc1Cl (stereo not given)	> 100 µM	> 100 µM	> 100 µM	60.4 µM			TGI (HOP-18 NSCLC): > 100 µM; TGI (RXF-631 renal): > 100 µM; TGI (XF 498 CNS): > 100 µM

SMILES	TGI (KM20L2 colon)	TGI (SNB-78 CNS)	TGI (LXFL 529 NSCLC)	TGI (M19-MEL melanoma)	GI50 (BT-549 breast)	TGI (BT-549 breast)	further results
O=C1c2ccccc2-c2c1c1ccccc1c(=O)n2CCNCCNCCn1c2c(c3ccccc3c1=O)C(=O)c1ccccc1-2					3.47 µM	17.4 µM	
O=C1OC2(c3ccccc3Oc3ccccc32)c2ccccc21	> 100 µM	> 100 µM	> 100 µM	> 100 µM			TGI (HOP-18 NSCLC): > 100 µM
Cc1[nH]c(/C=C2\C(=O)Nc3ccc(F)cc32)c(C)c1C(=O)NC[C@H](O)CN1CCOCC1					6.47 µM	> 10 µM	
COc1cc2c(/C=C3/C(=O)Nc4ccccc43)c(Cl)n(Cc3ccccc3[N+](=O)[O-])c2cc1C					9.16 µM	27.8 µM	
COc1ccc(-c2nc(-c3ccccc3)c(-c3ccccc3)n2C2CC2)cc1OC1CCCC1					> 165 µM	> 165 µM	
O=C(Nc1ncc(Cc2ccccc2Cl)s1)c1ccc2c(c1)OCCO2					0.567 µM	> 100 µM	
N=C(N)CCCCCCCCC(=N)N					27.2 µM	> 100 µM	
COc1ccc(-c2cn[nH]c2-c2cc(OC)c(OC)c(OC)c2)cc1N					< 0.01 µM and 0.0374 µM		
CCOC(=O)C(C)c1cc(C2(C)OCCO2)c(C)o1 (stereo not given)	> 100 µM	> 100 µM	> 100 µM	> 100 µM			TGI (HOP-18 NSCLC): > 100 µM; TGI (RXF-631 renal): > 100 µM; TGI (XF 498 CNS): > 100 µM
COC(=O)c1ccc(N=NN(C)CO)cc1	> 100 µM	> 100 µM	> 100 µM	> 100 µM			TGI (XF 498 CNS): 9.97 µM
N.N.NC(CS)C(=O)[O-].NC(CS)C(=O)[O-].[Pt+4] (stereo not given)	> 50 µM	> 50 µM	> 50 µM				GI50 (KM20L2 colon): > 50 µM; GI50 (HOP-18 NSCLC): > 50 µM; TGI (HOP-18 NSCLC): > 50 µM; GI50 (SNB-78 CNS): > 50 µM; GI50 (LXFL 529 NSCLC): > 50000 nM
Cc1cc2c(F)c(Oc3ncnn4cc(OC[C@@H](C)OC(=O)[C@H](C)N)c(C)c34)ccc2[nH]1					8.43 µM	22 µM	
C[C@]12CC[C@@H]3c4ccc(O)cc4CC[C@H]3[C@@H]1CC[C@@H]2NS(=O)(=O)Cc1ccc(Cl)cc1					2.35 µM	5.74 µM	
COC(=O)c1nc(NC#N)[nH]c(=O)c1C	> 100 µM	> 100 µM	> 100 µM	> 100 µM			TGI (HOP-18 NSCLC): > 100 µM; TGI (RXF-631 renal): > 100 µM
CS(=O)c1ccc(COP(N)(=O)N(CCCl)CCCl)cc1 (stereo not given)	> 100 µM	> 100 µM	> 100 µM	> 100 µM			TGI (XF 498 CNS): > 100 µM
O=C(Oc1ccc(CCl)cc1)c1ccccc1					0.154 µM	0.295 µM	
Cc1ccc2c(=O)c3cccc(CC(=O)O)c3oc2c1C					> 100 µM	> 100 µM	
CN(C)c1ccc2c3c(c(=O)oc2c1)CCC3						> 100 µM	TGI (MDA-N): > 100 µM
Nc1c(-c2nc3ccccc3[nH]2)sc(=S)n1-c1ccccc1		> 100 µM	> 100 µM	> 100 µM			TGI (RXF-631 renal): > 100 µM
S=C(N/N=C/c1ccccn1)Nc1ccccn1					1.99 µM	> 100 µM	

— PubChem BioAssay (NCI)
